Measurements as given in US8884017B2, “2-heteroarylcarboxylic acid amides” (Bayer Intellectual Property GmbH, priority 2001, dated 2014).
pKi: −log10 of the molar value. Where a name gives a salt, the structure may show the parent alone.

Biological target: α7-nAChR (Rattus norvegicus (Rat), UniProt Q05941)
Test: Affinity for α7-nAChR by inhibition of [3H]-methyllycaconitine binding to rat brain membranes
Details: rat brain membranes (P2 fraction), Ki=IC50/(1+L/KD)
Procedure: 1. Determination of the Affinity of Test Substances for α7-nAChR by Inhibition of [^3H]-methyllycaconitine Binding to Rat Brain Membranes
The [^3H]-methyllycaconitine binding assay is a modification of the method described by Davies et al. in Neuropharmacol.
Rat brain tissue (hippocampus or whole brain) is homogenized in homogenization buffer (10% w/v, 0.32 M sucrose, 1 mM EDTA, 0.1 mM phenylmethylsulfonyl fluoride (PMSF), 0.01% (w/v) NaN3, pH 7.4, 4° C.) at 600 rpm in a glass homogenizer. The homogenate is centrifuged (1000×g, 4° C., 10 min) and the supernatant is removed. The pellet is resuspended (20% w/v) and the suspension is centrifuged (1000×g, 4° C., 10 min). The two supernatants are combined and centrifuged (15 000×g, 4° C., 30 min). The pellet obtained in this way is referred to as the P2 fraction.
The P2 pellet is washed with binding buffer (50 mM Tris-HCl, 1 mM MgCl2, 120 mM NaCl, 5 mM KCl, 2 mM CaCl2, pH 7.4), and centrifuged (15 000×g, 4° C., 30 min), twice.
The P2 membranes are resuspended in binding buffer and incubated in a volume of 250 μl (amount of membrane protein 0.1-0.5 mg) in the presence of 1-5 nM [^3H]-methyllycaconitine, 0.1% (w/v) BSA (bovine serum albumin) and various concentrations of the test substance at 21° C. for 2.5 h. Incubation is then carried out in the presence of 1 μM α-bungarotoxin or 100 μM nicotine or 10 μM MLA (methyllycaconitine) to determine the non-specific binding.
The incubation is stopped by adding 4 ml PBS (20 mM Na2HPO4, 5 mM KH2PO4, 150 mM NaCl, pH 7.4, 4° C.) and filtering through type A/E glass fibre filters (Gelman Sciences) which have previously been placed in 0.3% (v/v) polyethyleneimine (PEI) for 3 h. The filters are washed twice with 4 ml of PBS (4° C.), and the bound radioactivity is determined by scintillation measurement. All the assays are carried out in triplicate.

Sequence of α7-nAChR (Q05941 23-502 limits assumed): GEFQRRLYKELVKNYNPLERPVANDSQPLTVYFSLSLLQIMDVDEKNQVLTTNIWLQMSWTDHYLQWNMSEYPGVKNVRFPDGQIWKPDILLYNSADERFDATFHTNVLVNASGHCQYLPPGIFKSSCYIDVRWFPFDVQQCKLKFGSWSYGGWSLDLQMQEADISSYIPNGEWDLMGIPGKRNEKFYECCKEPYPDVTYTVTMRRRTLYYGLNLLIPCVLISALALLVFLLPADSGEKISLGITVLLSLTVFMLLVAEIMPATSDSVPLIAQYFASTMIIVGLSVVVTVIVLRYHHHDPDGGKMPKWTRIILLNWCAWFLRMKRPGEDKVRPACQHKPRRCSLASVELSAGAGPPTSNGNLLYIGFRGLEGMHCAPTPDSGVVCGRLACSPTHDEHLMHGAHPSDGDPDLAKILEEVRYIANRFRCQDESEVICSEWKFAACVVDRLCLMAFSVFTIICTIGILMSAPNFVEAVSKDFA

| Compound | pKi |
| --- | --- |
| COc1cccc2cc(C(=O)N[C@H]3CN4CCC3CC4)oc12 [Example 19, N-[(3R)-1-Azabicyclo[2.2.2]oct-3-yl]-7-methoxy-1-benzofuran-2-carboxamide hydrochloride] | 7.38 |
| Nc1ccc2cc(C(=O)N[C@H]3CN4CCC3CC4)oc2c1 [Example 35, N-[(3R)-1-Azabicyclo[2.2.2]oct-3-yl]-6-amino-1-benzofuran-2-carboxamide] | 8.43 |
| O=C(N[C@H]1CN2CCC1CC2)c1cc2cccc([N+](=O)[O-])c2o1 [Example 36, N-[(3R)-1-Azabicyclo[2.2.2]oct-3-yl]-7-nitro-1-benzofuran-2-carboxamide] | 7.20 |
| Nc1cccc2cc(C(=O)N[C@H]3CN4CCC3CC4)oc12 [Example 37, N-[(3R)-1-Azabicyclo[2.2.2]oct-3-yl]-7-amino-1-benzofuran-2-carboxamide] | 7.10 |
| O=C(N[C@H]1CN2CCC1CC2)c1cc2cc(F)ccc2o1 [Example 42, N-[(3R)-1-Azabicyclo[2.2.2]oct-3-yl]-5-fluoro-1-benzofuran-2-carboxamide hydrochloride] | 7.43 |
| O=C(N[C@H]1CN2CCC1CC2)c1cc2cccc(Br)c2o1 [Example 46, N-[(3R)-1-Azabicyclo[2.2.2]oct-3-yl]-7-bromo-1-benzofuran-2-carboxamide] | 7.24 |
| O=C(N[C@H]1CN2CCC1CC2)c1cc2ccc3ccccc3c2o1 [Example 48, N-[(3R)-1-Azabicyclo[2.2.2]oct-3-yl]naphtho[1,2-b]furan-2-carboxamide hydrochloride] | 7.12 |
| O=C(N[C@@H]1CN2CCC1CC2)c1cc2cccc(F)c2s1 [Example 59, N-[(3S)-1-Azabicyclo[2.2.2]oct-3-yl]-7-fluoro-1-benzothiophene-2-carboxamide hydrochloride] | 7.70 |
| Nc1ccc2sc(C(=O)N[C@H]3CN4CCC3CC4)cc2c1 [Example 62, N-[(3R)-1-Azabicyclo[2.2.2]oct-3-yl]-5-amino-1-benzothiophene-2-carboxamide dihydrochloride] | 7.30 |
| O=C(N[C@H]1CN2CCC1CC2)c1cc2cccc(C(F)(F)F)c2s1 [Example 64, N-[(3R)-1-Azabicyclo[2.2.2]oct-3-yl]-7-trifluoromethyl-1-benzothiophene-2-carboxamide hydrochloride] | 7.70 |
| O=C(N[C@@H]1CN2CCC1CC2)c1cc2cccc(C(F)(F)F)c2s1 [Example 65, N-[(3S)-1-Azabicyclo[2.2.2]oct-3-yl]-7-trifluoromethyl-1-benzothiophene-2-carboxamide hydrochloride] | 7.26 |
| Nc1cccc2cc(C(=O)N[C@H]3CN4CCC3CC4)sc12 [Example 68, N-[(3R)-1-Azabicyclo[2.2.2]oct-3-yl]-7-amino-1-benzothiophene-2-carboxamide dihydrochloride] | 8.70 |
| Nc1ccc2cc(C(=O)N[C@H]3CN4CCC3CC4)sc2c1 [Example 73, 6-Amino-N-[(3R)-1-azabicyclo[2.2.2]oct-3-yl]-1-benzothiophene-2-carboxamide dihydrochloride] | 8.55 |
| O=C(N[C@H]1CN2CCC1CC2)c1cc2cc(F)ccc2s1 [Example 74, N-[(3R)-1-Azabicyclo[2.2.2]oct-3-yl]-5-fluoro-1-benzothiophene-2-carboxamide hydrochloride] | 7.66 |
| COc1cccc2cc(C(=O)N[C@H]3CN4CCC3CC4)sc12 [Example 76, N-[(3R)-1-Azabicyclo[2.2.2]oct-3-yl]-7-methoxy-1-benzothiophene-2-carboxamide hydrochloride] | 8.17 |
| COc1cccc2cc(C(=O)N[C@@H]3CN4CCC3CC4)sc12 [Example 77, N-[(3S)-1-Azabicyclo[2.2.2]oct-3-yl]-7-methoxy-1-benzothiophene-2-carboxamide hydrochloride] | 7.70 |
| O=C(N[C@H]1CN2CCC1CC2)c1cc2c(F)cccc2s1 [Example 78, N-[(3R)-1-Azabicyclo[2.2.2]oct-3-yl]-4-fluoro-1-benzothiophene-2-carboxamide hydrochloride] | 7.10 |
| O=C(N[C@H]1CN2CCC1CC2)c1cc2cc(F)cc(F)c2s1 [Example 80, N-[(3R)-1-Azabicyclo[2.2.2]oct-3-yl]-5,7-difluoro-1-benzothiophene-2-carboxamide hydrochloride] | 7.51 |
| CC(=O)Nc1ccc2cc(C(=O)N[C@H]3CN4CCC3CC4)sc2c1 [Example 88, 6-(Acetylamino)-N-[(3R)-1-azabicyclo[2.2.2]oct-3-yl]-1-benzothiophene-2-carboxamide hydrochloride] | 7.55 |
